Assay results as given in publication PMC7642425, “Engineering cofactor supply and NADH-dependent D-galacturonic acid reductases for redox-balanced production of L-galactonate in Saccharomyces cerevisiae” (Scientific Reports, 2020).

Key:
TrGar1 = target: T1, TrGar1 (Trichoderma reesei, UniProt Q3ZFI7); assay: HPLC of L-galactonate in cultures of expressing yeast; format: cell-based; settings: whole cells, sorbitol co-substrate, YlSdr supplying NADPH, pH 6.3, 30 °C
T1 construct: gene gar1; synthetic ORF codon optimized for S. cerevisiae; expressed in yeast strains co-expressing GatA, Hxt13 and sorbitol dehydrogenase; whole-cell conversion
T1 sequence (Q3ZFI7 1-309): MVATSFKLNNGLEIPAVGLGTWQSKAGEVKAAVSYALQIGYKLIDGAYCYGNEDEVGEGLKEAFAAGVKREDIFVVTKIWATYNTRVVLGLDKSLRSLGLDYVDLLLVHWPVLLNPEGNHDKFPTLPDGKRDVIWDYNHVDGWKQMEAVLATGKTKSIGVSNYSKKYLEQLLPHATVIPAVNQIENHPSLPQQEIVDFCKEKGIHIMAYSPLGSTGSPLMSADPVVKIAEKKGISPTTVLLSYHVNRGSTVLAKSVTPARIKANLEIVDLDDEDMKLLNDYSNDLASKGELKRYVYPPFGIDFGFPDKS

AnGar1 [1] = target: T2, AnGar1 (Aspergillus niger, UniProt A2R7U3); assay: NAD(P)H oxidation at […] nm, yeast crude extract; HPLC of L-galactonate in cultures; format: biochemical; settings: 100 mM GalA, NADPH, 10 mM potassium phosphate pH 7.2
T2 construct: gene An16g04770; synthetic ORF codon optimized for S. cerevisiae; expressed from plasmid in yeast CEN.PK2-1C, clear crude extract assayed against empty-vector control
T2 sequence (A2R7U3 1-319): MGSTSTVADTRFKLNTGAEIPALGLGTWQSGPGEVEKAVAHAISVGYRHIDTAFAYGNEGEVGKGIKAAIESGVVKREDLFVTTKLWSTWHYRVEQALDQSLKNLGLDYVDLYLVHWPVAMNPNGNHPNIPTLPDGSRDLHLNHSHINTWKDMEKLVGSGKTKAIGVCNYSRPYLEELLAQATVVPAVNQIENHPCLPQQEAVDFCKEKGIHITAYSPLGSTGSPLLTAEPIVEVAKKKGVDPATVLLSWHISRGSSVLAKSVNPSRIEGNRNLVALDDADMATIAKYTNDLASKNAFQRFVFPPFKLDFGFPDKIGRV

AnGaaA = target: T3, AnGaaA (Aspergillus niger, UniProt A8DRH9); assay: HPLC of L-galactonate in cultures of expressing yeast; format: cell-based; settings: whole cells, sorbitol co-substrate, YlSdr supplying NADPH, pH 6.3, 30 °C
T3 construct: gene gaaA; synthetic ORF codon optimized for S. cerevisiae; expressed from multicopy plasmid in yeast; whole-cell conversion
T3 sequence (A8DRH9 1-412): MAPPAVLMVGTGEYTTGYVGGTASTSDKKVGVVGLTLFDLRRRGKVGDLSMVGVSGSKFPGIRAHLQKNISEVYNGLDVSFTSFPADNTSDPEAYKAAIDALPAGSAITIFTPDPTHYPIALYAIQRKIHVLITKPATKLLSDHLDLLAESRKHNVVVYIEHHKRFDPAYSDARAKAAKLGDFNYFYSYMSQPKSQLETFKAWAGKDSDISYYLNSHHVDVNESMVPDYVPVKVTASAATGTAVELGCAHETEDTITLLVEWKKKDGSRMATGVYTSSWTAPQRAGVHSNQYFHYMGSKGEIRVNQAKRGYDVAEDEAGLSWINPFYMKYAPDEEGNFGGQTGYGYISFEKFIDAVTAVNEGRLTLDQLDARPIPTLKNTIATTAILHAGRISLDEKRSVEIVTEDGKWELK

AnGar1 [2] = target: T2, AnGar1; assay: NADH oxidation at […] nm, yeast crude extract; format: biochemical; settings: 160 or 800 uM NADH, 100 mM GalA, 10 mM potassium phosphate pH 7.2; competitive
AnGar1 [3] = target: T2, AnGar1; assay: NADPH oxidation at […] nm, yeast crude extract; format: biochemical; settings: 100 mM GalA, 160 or 800 uM NADPH, 10 mM potassium phosphate pH 7.2

In the case of `O=C(O)[C@H]1OC(O)[C@H](O)[C@@H](O)[C@H]1O` (stereo partly drawn) [D-galacturonic acid], the “HPLC of L-galactonate in cultures of expressing yeast” value (TrGar1) is reported as “Wildtype TrGar1 and AnGar1 produce comparable amount of GalOA”, the “NAD(P)H oxidation at 340 nm, yeast crude extract; HPLC of L-galactonate in cultu” value (AnGar1 [1]) is reported as “we demonstrate, for the first time, the activity of AnGar1 as a GalA reductase” and the “HPLC of L-galactonate in cultures of expressing yeast” value (AnGaaA) is reported as “The lower titers observed with AnGaaA in comparison to TrGar1”.

For `NC(=O)c1ccc[n+]([C@@H]2O[C@H](COP(=O)(O)OP(=O)(O)OC[C@H]3O[C@@H](n4cnc5c(N)ncnc54)[C@H](OP(=O)(O)O)[C@@H]3O)[C@@H](O)[C@H]2O)c1` [NADP], the “relative activity (% of activity without NADP)” value (AnGar1 [2]) was “when NADP was added to competitively inhibit NADH binding, only the mutants were able”.

For `NC(=O)C1=CN([C@@H]2O[C@H](COP(=O)(O)OP(=O)(O)OC[C@H]3O[C@@H](n4cnc5c(N)ncnc54)[C@H](OP(=O)(O)O)[C@@H]3O)[C@@H](O)[C@H]2O)C=CC1` [NADPH], the “NADPH oxidation at 340 nm, yeast crude extract” value (AnGar1 [3]) was “lower compared to those with NADPH of the wildtype enzyme”.
